For 26 compounds, IC50 results are on record in patent US12060347B2 (BRISTOL-MYERS SQUIBB COMPANY, priority 2016, dated 2024).

For this experiment, the target named is T1, human PAR4 (Homo sapiens, UniProt Q96RI0).
T1 construct: expressed in transfected cells; host or cells: HEK293 PAR4 Clone 1.2A (BMS Arctic ID 383940)
T1 sequence (Q96RI0 18-385): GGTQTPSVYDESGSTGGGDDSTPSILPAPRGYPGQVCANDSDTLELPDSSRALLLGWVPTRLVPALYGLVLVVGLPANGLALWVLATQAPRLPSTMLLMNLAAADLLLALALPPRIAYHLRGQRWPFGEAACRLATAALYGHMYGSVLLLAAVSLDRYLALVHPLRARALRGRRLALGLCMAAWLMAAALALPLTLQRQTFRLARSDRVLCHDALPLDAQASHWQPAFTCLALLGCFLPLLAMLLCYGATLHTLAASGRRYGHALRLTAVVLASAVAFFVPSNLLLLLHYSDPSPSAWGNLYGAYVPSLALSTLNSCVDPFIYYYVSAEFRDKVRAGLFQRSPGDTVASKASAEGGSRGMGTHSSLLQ
In words: PAR4 FLIPR assay: antagonism of agonist-peptide-induced calcium mobilization in PAR4-expressing HEK293 cells. It is filed as cell-based. The following applies: H-Ala-Phe(4-F)-[…]NH2-induced intracellular calcium mobilization, 11-point curves.

With `COc1cnc2c(-c3nc4c(Cl)c(F)c(O[C@@H](C)[C@@H](C)OC(=O)Nc5cccnc5)cc4s3)cc(C)cc2n1` [Example 404, (2R,3S)-3-((4-chloro-5-fluoro-2-(2-methoxy-7-methylquinoxalin-5-yl)benzo[d]thiazol-6-yl)oxy)butan-2-yl pyridin-3-ylcarbamate], the IC50 was 2.2 nM.
Take `COc1cnc2c(-c3nc4cc(F)c(O[C@@H](C)[C@@H](C)OC(=O)Nc5ccc(C)nc5)cc4s3)cc(C)cc2n1` [Example 405, (2R,3S)-3-((5-fluoro-2-(2-methoxy-7-methylquinoxalin-5-yl)benzo[d]thiazol-6-yl)oxy)butan-2-yl (6-methylpyridin-3-yl)carbamate]: the IC50 was 1.9 nM.
For the compound `COc1cnc2c(-c3nc4cc(F)c(O[C@@H](C)[C@@H](C)OC(=O)Nc5ccc6[nH]c(=O)oc6c5)cc4s3)cc(C)cc2n1` [Example 406, (2R,3S)-3-((5-fluoro-2-(2-methoxy-7-methylquinoxalin-5-yl)benzo[d]thiazol-6-yl)oxy)butan-2-yl (2-oxo-2,3-dihydrobenzo[d]oxazol-6-yl)carbamate], the IC50 was 3.5 nM.
On to `COc1cnc2c(-c3nc4cc(F)c(O[C@@H](C)[C@@H](C)OC(=O)Nc5cnc(OC)nc5)cc4s3)cc(C)cc2n1` [Example 407, (2R,3S)-3-((5-fluoro-2-(2-methoxy-7-methylquinoxalin-5-yl)benzo[d]thiazol-6-yl)oxy)butan-2-yl (2-methoxypyrimidin-5-yl)carbamate], for which the IC50 is 0.9 nM.
The figure for `COc1cnc2c(-c3nc4cc(F)c(OC[C@@H](C)OC(=O)Nc5cnc(OC)nc5)cc4s3)cc(C)cc2n1` [Example 408, (R)-1-((5-fluoro-2-(2-methoxy-7-methylquinoxalin-5-yl)benzo[d]thiazol-6-yl)oxy)propan-2-yl (2-methoxypyrimidin-5-yl)carbamate] is 3.2 nM; for `COc1cnc2c(-c3nc4cc(F)c(OC[C@@H](C)OC(=O)Nc5cncnc5)cc4s3)cc(C)cc2n1` [Example 409, (R)-1-((5-fluoro-2-(2-methoxy-7-methylquinoxalin-5-yl)benzo[d]thiazol-6-yl)oxy)propan-2-yl pyrimidin-5-ylcarbamate] it is 0.4 nM; for `COc1cnc2c(-c3nc4cc(F)c(O[C@@H](C)[C@@H](C)OC(=O)Nc5cncnc5)cc4s3)cc(C)cc2n1` [Example 410, (2R,3S)-3-((5-fluoro-2-(2-methoxy-7-methylquinoxalin-5-yl)benzo[d]thiazol-6-yl)oxy)butan-2-yl pyrimidin-5-ylcarbamate] it is 0.3 nM.
The figure for `COc1cnc2c(-c3nc4cc(F)c(OC[C@@H](C)OC(=O)Nc5ccccc5)cc4s3)cc(C)cc2n1` [Example 411, (R)-1-((5-fluoro-2-(2-methoxy-7-methylquinoxalin-5-yl)benzo[d]thiazol-6-yl)oxy)propan-2-yl phenylcarbamate] is 4.4 nM.
On to `COc1cc(NC(=O)O[C@H](C)[C@H](C)Oc2cc3sc(-c4cc(C)cc5nc(OC)cnc45)nc3cc2F)ccn1` [Example 412, (2R,3S)-3-((5-fluoro-2-(2-methoxy-7-methylquinoxalin-5-yl)benzo[d]thiazol-6-yl)oxy)butan-2-yl (2-methoxypyridin-4-yl)carbamate], for which the concentration for half-maximal inhibition (IC50) was 0.3 nM.
With `COc1cnc2c(-c3nc4cc(F)c(O[C@@H](C)[C@@H](C)OC(=O)Nc5ccnnc5)cc4s3)cc(C)cc2n1` [Example 413, (2R,3S)-3-((5-fluoro-2-(2-methoxy-7-methylquinoxalin-5-yl)benzo[d]thiazol-6-yl)oxy)butan-2-yl pyridazin-4-ylcarbamate], the IC50 worked out at 3.4 nM.
Take `CCCc1ncc(NC(=O)O[C@H](C)[C@H](C)Oc2cc3sc(-c4cc(C)cc5nc(OC)cnc45)nc3cc2F)cn1` [Example 414, (2R,3S)-3-((5-fluoro-2-(2-methoxy-7-methylquinoxalin-5-yl)benzo[d]thiazol-6-yl)oxy)butan-2-yl (2-propylpyrimidin-5-yl)carbamate]: the IC50 worked out at 7 nM.
`COc1cnc2c(-c3nc4cc(F)c(O[C@@H](C)[C@@H](C)OC(=O)Nc5cnc(C(F)(F)F)nc5)cc4s3)cc(C)cc2n1` [Example 415, (2R,3S)-3-((5-fluoro-2-(2-methoxy-7-methylquinoxalin-5-yl)benzo[d]thiazol-6-yl)oxy)butan-2-yl (2-(trifluoromethyl)pyrimidin-5-yl)carbamate]: the IC50 amounted to 3.1 nM.
Turning to `COc1cnc2c(-c3nc4cc(F)c(O[C@@H](C)[C@@H](C)OC(=O)Nc5ccc(C)nn5)cc4s3)cc(C)cc2n1` [Example 416, (2R,3S)-3-((5-fluoro-2-(2-methoxy-7-methylquinoxalin-5-yl)benzo[d]thiazol-6-yl)oxy)butan-2-yl (6-methylpyridazin-3-yl)carbamate], the IC50 was determined as 32 nM.
Regarding `COc1cnc2c(-c3nc4cc(F)c(O[C@@H](C)[C@@H](C)OC(=O)Nc5cnc(C)cn5)cc4s3)cc(C)cc2n1` [Example 417, (2R,3S)-3-((5-fluoro-2-(2-methoxy-7-methylquinoxalin-5-yl)benzo[d]thiazol-6-yl)oxy)butan-2-yl (5-methylpyrazin-2-yl)carbamate], the IC50 amounted to 11 nM.
For the compound `COc1cnc2c(-c3nc4cc(F)c(O[C@@H](C)[C@@H](C)OC(=O)Nc5cnnc(C)c5)cc4s3)cc(C)cc2n1` [Example 418, (2R,3S)-3-((5-fluoro-2-(2-methoxy-7-methylquinoxalin-5-yl)benzo[d]thiazol-6-yl)oxy)butan-2-yl (6-methylpyridazin-4-yl)carbamate], the half-maximal inhibitory concentration (IC50) is 1.3 nM.
For the compound `COc1cnc2c(-c3nc4cc(F)c(O[C@@H](C)[C@@H](C)OC(=O)Nc5cncc(C)c5)cc4s3)cc(C)cc2n1` [Example 419, (2R,3S)-3-((5-fluoro-2-(2-methoxy-7-methylquinoxalin-5-yl)benzo[d]thiazol-6-yl)oxy)butan-2-yl (5-methylpyridin-3-yl)carbamate], the IC50 was 2 nM.
In the case of `COc1cncc(NC(=O)O[C@H](C)[C@H](C)Oc2cc3sc(-c4cc(C)cc5nc(OC)cnc45)nc3cc2F)c1` [Example 420, (2R,3S)-3-((5-fluoro-2-(2-methoxy-7-methylquinoxalin-5-yl)benzo[d]thiazol-6-yl)oxy)butan-2-yl (5-methoxypyridin-3-yl)carbamate], the IC50 came out at 2.2 nM.
The figure for `COc1cnc2c(-c3nc4cc(F)c(O[C@@H](C)[C@@H](C)OC(=O)Nc5cncc(C#N)c5)cc4s3)cc(C)cc2n1` [Example 421, (2R,3S)-3-((5-fluoro-2-(2-methoxy-7-methylquinoxalin-5-yl)benzo[d]thiazol-6-yl)oxy)butan-2-yl (5-cyanopyridin-3-yl)carbamate] is 1.8 nM; for `COc1cnc2c(-c3nc4cc(F)c(O[C@@H](C)[C@@H](C)OC(=O)Nc5cnc(OC)c(C)c5)cc4s3)cc(C)cc2n1` [Example 422, (2R,3S)-3-((5-fluoro-2-(2-methoxy-7-methylquinoxalin-5-yl)benzo[d]thiazol-6-yl)oxy)butan-2-yl (6-methoxy-5-methylpyridin-3-yl)carbamate] it is 2.2 nM; for `COc1cnc2c(-c3nc4cc(F)c(O[C@@H](C)[C@@H](C)OC(=O)Nc5cccnc5)cc4s3)cc(C)cc2n1` [Example 423, (2R,3S)-3-((5-fluoro-2-(2-methoxy-7-methylquinoxalin-5-yl)benzo[d]thiazol-6-yl)oxy)butan-2-yl pyridin-3-ylcarbamate] it is 4.2 nM.
On to `COc1cnc2c(-c3nc4cc(F)c(O[C@@H](C)[C@@H](C)OC(=O)Nc5ccc(C(=O)N6CCOCC6)nc5)cc4s3)cc(C)cc2n1` [Example 426, (2R,3S)-3-((5-fluoro-2-(2-methoxy-7-methylquinoxalin-5-yl)benzo[d]thiazol-6-yl)oxy)butan-2-yl (6-(morpholine-4-carbonyl)pyridin-3-yl)carbamate], for which the IC50 was 5.4 nM.
Consider `COc1cnc2c(-c3nc4c(Cl)c(F)c(OC[C@@H](C)OC(=O)Nc5ccnc(C(N)=O)c5)cc4s3)cc(C)cc2n1` [Example 427, (R)-1-((4-chloro-5-fluoro-2-(2-methoxy-7-methylquinoxalin-5-yl)benzo[d]thiazol-6-yl)oxy)propan-2-yl (2-carbamoylpyridin-4-yl)carbamate], for which the IC50 came out at 7.6 nM.
As for `CNC(=O)c1cc(NC(=O)O[C@H](C)COc2cc3sc(-c4cc(C)cc5nc(OC)cnc45)nc3c(Cl)c2F)ccn1` [Example 428, (R)-1-((4-chloro-5-fluoro-2-(2-methoxy-7-methylquinoxalin-5-yl)benzo[d]thiazol-6-yl)oxy)propan-2-yl (2-(methyl carbamoyl)pyridin-4-yl)carbamate], the IC50 is 5.9 nM.
As for `COc1cnc2c(-c3nc4cc(F)c(OC[C@@H](C)OC(=O)Nc5cnc(C(N)=O)nc5)cc4s3)cc(C)cc2n1` [Example 429, (R)-1-((5-fluoro-2-(2-methoxy-7-methylquinoxalin-5-yl)benzo[d]thiazol-6-yl)oxy)propan-2-yl (2-carbamoylpyrimidin-5-yl)carbamate], the IC50 was found to be 0.5 nM.
With `CNC(=O)c1ncc(NC(=O)O[C@H](C)COc2cc3sc(-c4cc(C)cc5nc(OC)cnc45)nc3cc2F)cn1` [Example 430, (R)-1-((5-fluoro-2-(2-methoxy-7-methylquinoxalin-5-yl)benzo[d]thiazol-6-yl)oxy)propan-2-yl (2-(methylcarbamoyl)pyrimidin-5-yl)carbamate], the concentration for half-maximal inhibition (IC50) is 0.9 nM.
Consider `COc1cnc2c(-c3nc4cc(F)c(OC[C@@H](C)OC(=O)Nc5cnc(C(=O)N(C)C)nc5)cc4s3)cc(C)cc2n1` [Example 431, (R)-1-((5-fluoro-2-(2-methoxy-7-methylquinoxalin-5-yl)benzo[d]thiazol-6-yl)oxy)propan-2-yl (2-(dimethylcarbamoyl)pyrimidin-5-yl)carbamate], for which the IC50 was 1.1 nM.
